In US9663508B2, “Biaryl acyl-sulfonamide compounds as sodium channel inhibitors” (AMGEN INC., priority 2013, dated 2017) one finds IC50 data, which are given here for 26 molecules.

Like-named read-outs stand apart in the source and are kept apart here.

One data set concerns the target human Nav 1.5 (Homo sapiens (Human), UniProt Q14524). Put plainly: Nav 1.5 IonWorks Quattro (IWQ) in vitro assay. Format: cell-based. (In general: Patch clamp records ionic current or voltage across a cell membrane.)
For a further data set, the target named is human Nav1.7 (Homo sapiens (Human), UniProt Q15858). Put plainly: Nav 1.7 in vitro PatchXpress (PX) assay. Format: cell-based.
human Nav1.7, sequence (Q15858 whole entry): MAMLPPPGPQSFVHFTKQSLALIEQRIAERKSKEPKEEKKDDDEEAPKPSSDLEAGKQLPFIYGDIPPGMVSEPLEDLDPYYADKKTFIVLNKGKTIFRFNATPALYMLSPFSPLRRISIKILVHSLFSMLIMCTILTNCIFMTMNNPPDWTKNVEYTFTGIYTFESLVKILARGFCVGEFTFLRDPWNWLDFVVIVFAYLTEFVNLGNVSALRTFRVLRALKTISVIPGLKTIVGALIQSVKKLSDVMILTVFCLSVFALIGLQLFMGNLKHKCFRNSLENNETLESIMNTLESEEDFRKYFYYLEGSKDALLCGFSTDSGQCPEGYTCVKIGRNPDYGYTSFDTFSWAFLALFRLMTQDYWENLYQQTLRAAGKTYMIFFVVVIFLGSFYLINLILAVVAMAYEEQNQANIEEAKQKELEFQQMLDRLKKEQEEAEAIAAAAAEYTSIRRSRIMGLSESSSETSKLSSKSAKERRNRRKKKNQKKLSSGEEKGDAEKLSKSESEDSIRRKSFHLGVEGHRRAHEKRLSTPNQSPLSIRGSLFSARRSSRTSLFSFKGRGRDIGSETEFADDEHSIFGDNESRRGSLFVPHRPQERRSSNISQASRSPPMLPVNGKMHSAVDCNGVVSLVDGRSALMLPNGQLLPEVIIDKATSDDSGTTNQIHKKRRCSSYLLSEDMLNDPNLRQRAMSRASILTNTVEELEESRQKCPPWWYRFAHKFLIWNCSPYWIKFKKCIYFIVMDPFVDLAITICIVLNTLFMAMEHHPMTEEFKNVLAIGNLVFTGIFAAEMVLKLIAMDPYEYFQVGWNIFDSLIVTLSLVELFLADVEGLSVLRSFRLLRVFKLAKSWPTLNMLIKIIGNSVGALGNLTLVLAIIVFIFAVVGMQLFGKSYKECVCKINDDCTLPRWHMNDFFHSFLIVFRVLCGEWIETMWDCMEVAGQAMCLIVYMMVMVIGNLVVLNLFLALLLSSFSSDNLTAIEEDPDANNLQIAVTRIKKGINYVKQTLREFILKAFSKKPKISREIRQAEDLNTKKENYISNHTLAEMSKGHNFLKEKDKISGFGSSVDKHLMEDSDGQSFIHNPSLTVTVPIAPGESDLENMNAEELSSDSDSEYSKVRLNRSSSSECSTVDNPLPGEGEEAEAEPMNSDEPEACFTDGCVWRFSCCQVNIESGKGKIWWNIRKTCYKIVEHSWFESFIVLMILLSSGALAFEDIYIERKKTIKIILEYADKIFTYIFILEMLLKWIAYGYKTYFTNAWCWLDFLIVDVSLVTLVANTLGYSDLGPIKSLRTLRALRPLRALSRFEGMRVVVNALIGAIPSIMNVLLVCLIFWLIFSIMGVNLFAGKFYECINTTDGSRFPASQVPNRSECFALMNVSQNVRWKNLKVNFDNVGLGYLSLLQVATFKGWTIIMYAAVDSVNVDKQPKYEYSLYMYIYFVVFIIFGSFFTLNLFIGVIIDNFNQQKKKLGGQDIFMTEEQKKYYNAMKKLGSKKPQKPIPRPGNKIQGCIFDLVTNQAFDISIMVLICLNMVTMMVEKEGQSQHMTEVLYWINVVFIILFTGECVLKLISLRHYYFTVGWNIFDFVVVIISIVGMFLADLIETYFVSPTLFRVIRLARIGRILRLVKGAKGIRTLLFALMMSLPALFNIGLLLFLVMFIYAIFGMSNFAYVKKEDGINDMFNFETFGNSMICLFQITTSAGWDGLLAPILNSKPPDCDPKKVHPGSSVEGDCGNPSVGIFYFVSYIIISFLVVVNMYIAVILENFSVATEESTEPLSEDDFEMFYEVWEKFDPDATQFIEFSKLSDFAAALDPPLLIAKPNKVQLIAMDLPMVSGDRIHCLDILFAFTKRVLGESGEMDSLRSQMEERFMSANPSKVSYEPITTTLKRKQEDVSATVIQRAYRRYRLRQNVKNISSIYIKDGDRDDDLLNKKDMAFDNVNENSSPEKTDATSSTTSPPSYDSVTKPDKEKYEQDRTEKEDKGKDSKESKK
[1] abbreviates: in-vitro Nav 1.5 IWQ data, read-out: NAV 1.5 IWQ (IC50).

human Nav 1.5, sequence (Q14524 whole entry): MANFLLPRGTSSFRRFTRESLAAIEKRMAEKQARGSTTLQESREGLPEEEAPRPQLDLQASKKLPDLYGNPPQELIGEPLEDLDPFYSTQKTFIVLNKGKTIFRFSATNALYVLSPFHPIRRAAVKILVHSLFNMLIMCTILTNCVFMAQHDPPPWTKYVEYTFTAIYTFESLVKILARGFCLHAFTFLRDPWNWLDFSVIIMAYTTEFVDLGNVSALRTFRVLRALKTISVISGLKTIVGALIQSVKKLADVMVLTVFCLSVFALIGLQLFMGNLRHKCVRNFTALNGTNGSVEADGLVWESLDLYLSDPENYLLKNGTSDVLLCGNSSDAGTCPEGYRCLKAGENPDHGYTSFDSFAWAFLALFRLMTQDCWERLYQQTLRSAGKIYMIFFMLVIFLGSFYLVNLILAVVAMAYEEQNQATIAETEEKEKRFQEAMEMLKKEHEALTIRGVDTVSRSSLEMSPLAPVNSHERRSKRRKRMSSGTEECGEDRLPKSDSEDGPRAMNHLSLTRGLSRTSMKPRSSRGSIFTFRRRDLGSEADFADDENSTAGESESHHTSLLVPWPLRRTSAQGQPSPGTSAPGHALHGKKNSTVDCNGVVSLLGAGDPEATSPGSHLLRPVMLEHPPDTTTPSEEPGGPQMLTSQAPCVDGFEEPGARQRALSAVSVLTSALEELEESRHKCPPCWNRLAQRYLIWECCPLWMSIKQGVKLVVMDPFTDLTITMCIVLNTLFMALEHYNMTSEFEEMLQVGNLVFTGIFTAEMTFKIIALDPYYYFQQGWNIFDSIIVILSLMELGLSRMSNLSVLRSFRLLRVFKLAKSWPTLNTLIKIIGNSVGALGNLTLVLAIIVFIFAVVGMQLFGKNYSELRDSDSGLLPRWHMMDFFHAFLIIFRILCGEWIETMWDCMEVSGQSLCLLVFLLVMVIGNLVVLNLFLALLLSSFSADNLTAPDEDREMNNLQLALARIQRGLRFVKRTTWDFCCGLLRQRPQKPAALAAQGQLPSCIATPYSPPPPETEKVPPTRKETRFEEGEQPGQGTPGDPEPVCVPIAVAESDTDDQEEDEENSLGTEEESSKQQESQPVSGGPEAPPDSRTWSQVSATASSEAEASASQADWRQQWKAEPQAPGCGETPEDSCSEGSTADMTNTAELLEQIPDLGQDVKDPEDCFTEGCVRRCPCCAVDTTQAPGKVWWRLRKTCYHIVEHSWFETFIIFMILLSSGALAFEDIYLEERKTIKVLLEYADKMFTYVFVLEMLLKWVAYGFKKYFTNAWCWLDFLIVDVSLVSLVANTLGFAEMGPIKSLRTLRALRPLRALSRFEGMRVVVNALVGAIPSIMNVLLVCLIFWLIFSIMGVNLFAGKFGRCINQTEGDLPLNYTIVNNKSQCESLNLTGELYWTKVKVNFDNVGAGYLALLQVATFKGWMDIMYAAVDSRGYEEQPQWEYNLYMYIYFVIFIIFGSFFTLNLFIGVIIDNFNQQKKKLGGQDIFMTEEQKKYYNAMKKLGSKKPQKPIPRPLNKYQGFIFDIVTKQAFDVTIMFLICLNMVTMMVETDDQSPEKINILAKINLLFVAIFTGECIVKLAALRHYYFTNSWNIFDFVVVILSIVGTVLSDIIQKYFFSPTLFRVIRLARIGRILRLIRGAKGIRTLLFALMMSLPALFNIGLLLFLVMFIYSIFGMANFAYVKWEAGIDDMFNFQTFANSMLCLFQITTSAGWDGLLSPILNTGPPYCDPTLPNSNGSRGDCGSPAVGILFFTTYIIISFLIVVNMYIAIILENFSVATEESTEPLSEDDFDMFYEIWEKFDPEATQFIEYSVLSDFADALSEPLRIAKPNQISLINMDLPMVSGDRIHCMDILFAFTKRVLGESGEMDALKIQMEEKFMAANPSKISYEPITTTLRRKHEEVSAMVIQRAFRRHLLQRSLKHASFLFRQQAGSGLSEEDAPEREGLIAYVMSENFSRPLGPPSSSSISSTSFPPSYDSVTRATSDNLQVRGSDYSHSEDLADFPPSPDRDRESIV
Description for human Nav 1.5: Nav 1.7 or Nav 1.5 Ion Works Quattro (IWQ) In Vitro Assay
HEK 293 Cells stably transfected with either human Nay 1.7 or human Nay 1.5 were recorded in population patch-clamp mode with the IonWorks® Quattro automated electrophysiology system in accordance with the manufacturer's specifications (Molecular Devices, LLC, Sunnyvale, Calif.). Sodium channel currents were measured in response to a train of depolarizations that induced successively greater inactivation.
Cells were held at −110 mV for three seconds (Nav 1.7) or half a second (Nav 1.5) from a holding voltage of −15 mV, then put through a series of 26 pulses of 150 msec duration to −20 mV at a frequency of 5 Hz. Cells were then left unclamped for a period of 3 to 8 minutes while a single concentration of test compound was added. Cells were then reclamped and put through the same voltage protocol. Current at the end of the 26th pulse to −20 mV was subtracted from the peak current evoked by the 26th pulse to −20 mV to correct for leak current. Percent block was calculated for each concentration in duplicate, and IC50 curves were fitted to percent block as a function of concentration.

As usually defined, the IC50 is the point on the concentration scale where inhibition reaches its midpoint. `CC(C)[C@@H](Oc1ncc(-c2cc(F)c(C(=O)NS(C)(=O)=O)cc2Cl)cc1Cl)c1ccccc1` [Example 594, 5-chloro-4-(5-chloro-6-(((1R)-2-methyl-1-phenylpropyl)oxy)-3-pyridinyl)-2-fluoro-N-(methylsulfonyl)benzamide, 5-chloro-4-(5-chloro-6-(((1S)-2-methyl-1-phenylpropyl)oxy)-3-pyridinyl)-2-fluoro-N-(methylsulfonyl)benzamide]: the IC50 at human Nav 1.5 (read-out: NAV 1.5 IWQ IC50) is more than 3000 nM; against human Nav1.7, 48.8 nM.
The matching figures for `Cc1cc(C(=O)NS(C)(=O)=O)c(F)cc1-c1cnc(Oc2ccccc2-c2ccccc2)c(Cl)c1` [Example 612, 4-(6-(2-biphenylyloxy)-5-chloro-3-pyridinyl)-2-fluoro-5-methyl-N-(methylsulfonyl)benzamide]: more than 3000 nM and 88.3 nM.
The matching figures for `Cc1cc(C(=O)NS(C)(=O)=O)c(F)cc1-c1cnc(Oc2c(F)cc(F)cc2Cl)c(Cl)c1` [Example 666, 4-(5-chloro-6-(2-chloro-4,6-difluorophenoxy)-3-pyridinyl)-2-fluoro-5-methyl-N-(methylsulfonyl)benzamide]: 3410 nM and 49.7 nM.
Taken in the same sequence, the figures for `Cc1ccc(Cl)cc1Oc1ncc(-c2cc(F)c(C(=O)NS(C)(=O)=O)cc2Cl)cc1Cl` [Example 590, 5-chloro-4-(5-chloro-6-(5-chloro-2-methylphenoxy)-3-pyridinyl)-2-fluoro-N-(methylsulfonyl)benzamide] were more than 3000 nM and 68.1 nM.
On to `COc1cc(C(=O)NS(C)(=O)=O)c(F)cc1-c1cnc(Oc2ccc(C)c(F)c2)c(Cl)c1` [Example 698, 4-(5-chloro-6-(3-fluoro-4-methylphenoxy)-3-pyridinyl)-2-fluoro-5-methoxy-N-(methylsulfonyl)benzamide], for which the IC50 at human Nav 1.5 (read-out: NAV 1.5 IWQ IC50) came out at 6050 nM; at human Nav1.7, 59 nM.
The matching figures for `Cc1cc(C(=O)NS(C)(=O)=O)c(F)cc1-c1cnc(Oc2cc(C(F)(F)F)ccc2Cl)c(Cl)c1` [Example 642, 4-(5-chloro-6-(2-chloro-5-(trifluoromethyl)phenoxy)-3-pyridinyl)-2-fluoro-5-methyl-N-(methylsulfonyl)benzamide]: more than 3000 nM and 70.5 nM.
The matching figures for `COc1cc(C(=O)NS(C)(=O)=O)c(F)cc1-c1cnc(Oc2ccc(F)c(F)c2F)c(Cl)c1` [Example 701, 4-(5-chloro-6-(2,3,4-trifluorophenoxy)-3-pyridinyl)-2-fluoro-5-methoxy-N-(methylsulfonyl)benzamide]: more than 3000 nM and 70.6 nM.
Taken in the same sequence, the figures for `Cc1cc(C(=O)NS(C)(=O)=O)c(F)cc1-c1cnc(Oc2cc(F)cc(F)c2Cl)c(Cl)c1` [Example 631, 4-(5-chloro-6-(2-chloro-3,5-difluorophenoxy)-3-pyridinyl)-2-fluoro-5-methyl-N-(methylsulfonyl)benzamide] were more than 3000 nM and 62.8 nM.
Consider `Cc1cc(C(=O)NS(C)(=O)=O)c(F)cc1-c1cnc(Oc2cc(F)c(Cl)c(F)c2)c(Cl)c1` [Example 668, 4-(5-chloro-6-(4-chloro-3,5-difluorophenoxy)-3-pyridinyl)-2-fluoro-5-methyl-N-(methylsulfonyl)benzamide], for which the IC50 was more than 10000 nM on human Nav 1.5 (read-out: NAV 1.5 IWQ IC50) and 97 nM against human Nav1.7.
Turning to `COc1cc(C(=O)NS(C)(=O)=O)ccc1-c1cnc(COc2ccc(Cl)c(Cl)c2)c(Cl)c1` [Example 774, 4-(5-Chloro-6-((3,4-Dichlorophenoxy)-Methyl)Pyridin-3-yl)-3-Methoxy-N-(Methylsulfonyl)Benzamide], the IC50 on human Nav 1.5 (setting [1]) was more than 3000 nM; at human Nav1.7 (in-vitro Nav 1.7 PX data) it was 80.1 nM.
With `Cc1cc(C(=O)NS(C)(=O)=O)c(F)cc1-c1cnc(Oc2c(Cl)cccc2Cl)c(Cl)c1` [Example 627, 4-(5-chloro-6-(2,6-dichlorophenoxy)-3-pyridinyl)-2-fluoro-5-methyl-N-(methylsulfonyl)benzamide], the IC50 on human Nav 1.5 (read-out: NAV 1.5 IWQ IC50) is more than 3000 nM; against human Nav1.7 it was 69.1 nM.
Take `Cc1cc(C(=O)NS(C)(=O)=O)c(F)cc1-c1cnc(O[C@H](C)CCc2ccccc2)c(Cl)c1` [Example 638, 4-(5-chloro-6-(((1R)-1-methyl-3-phenylpropyl)oxy)-3-pyridinyl)-2-fluoro-5-methyl-N-(methylsulfonyl)benzamide, 4-(5-chloro-6-(((1S)-1-methyl-3-phenylpropyl)oxy)-3-pyridinyl)-2-fluoro-5-methyl-N-(methylsulfonyl)benzamide]: the IC50 on human Nav 1.5 (read-out: NAV 1.5 IWQ IC50) is more than 3000 nM; against human Nav1.7, 80 nM.
`Cc1ccc(Cl)cc1Oc1ncc(-c2cc(F)c(C(=O)NS(C)(=O)=O)cc2C)cc1Cl` [Example 616, 4-(5-chloro-6-(5-chloro-2-methylphenoxy)-3-pyridinyl)-2-fluoro-5-methyl-N-(methylsulfonyl)benzamide]: the IC50 was more than 3000 nM on human Nav 1.5 (read-out: NAV 1.5 IWQ IC50) and 70.8 nM at human Nav1.7.
In the case of `CS(=O)(=O)NC(=O)c1cc(Cl)c(-c2cnc(Oc3c(Cl)cccc3Cl)c(Cl)c2)cc1F` [Example 592, 5-chloro-4-(5-chloro-6-(2,6-dichlorophenoxy)-3-pyridinyl)-2-fluoro-N-(methylsulfonyl)benzamide], the IC50 at human Nav 1.5 (read-out: NAV 1.5 IWQ IC50) is more than 3000 nM; at human Nav1.7, 66.1 nM.
Regarding `Cc1cc(C(=O)NS(C)(=O)=O)c(F)cc1-c1cnc(N2CCC[C@H]2c2ccccc2)c(Cl)c1` [Example 646, 4-(5-chloro-6-((2S)-2-phenyl-1-pyrrolidinyl)-3-pyridinyl)-2-fluoro-5-methyl-N-(methylsulfonyl)benzamide], the IC50 was more than 3000 nM at human Nav 1.5 (read-out: NAV 1.5 IWQ IC50) and 99.9 nM on human Nav1.7.
The matching figures for `CS(=O)(=O)NC(=O)c1cc(Cl)c(-c2cnc(Oc3cc(F)ccc3F)c(Cl)c2)cc1F` [Example 597, 5-chloro-4-(5-chloro-6-(2,5-difluorophenoxy)-3-pyridinyl)-2-fluoro-N-(methylsulfonyl)benzamide]: 5390 nM and 69.8 nM.
The matching figures for `Cc1cc(Cl)ccc1COc1ncc(-c2cc(F)c(C(=O)NS(C)(=O)=O)cc2C)cc1Cl` [Example 681, 4-(5-chloro-6-((4-chloro-2-methylbenzyl)oxy)-3-pyridinyl)-2-fluoro-5-methyl-N-(methylsulfonyl)benzamide]: more than 4900 nM and 98.6 nM.
The matching figures for `Cc1cc(C(=O)NS(C)(=O)=O)c(F)cc1-c1cnc(O[C@H](C)C2CCC2)c(Cl)c1` [Example 641, 4-(5-chloro-6-((1R)-1-cyclobutylethoxy)-3-pyridinyl)-2-fluoro-5-methyl-N-(methylsulfonyl)benzamide, 4-(5-chloro-6-((1S)-1-cyclobutylethoxy)-3-pyridinyl)-2-fluoro-5-methyl-N-(methylsulfonyl)benzamide]: 9320 nM and 111 nM.
Consider `COc1ccccc1C[C@@H](C)Oc1ncc(-c2cc(F)c(C(=O)NS(C)(=O)=O)cc2C)cc1Cl` [Example 649, 4-(5-chloro-6-((1R)-2-(2-methoxyphenyl)-1-methylethoxy)-3-pyridinyl)-2-fluoro-5-methyl-N-(methylsulfonyl)benzamide, 4-(5-chloro-6-((1S)-2-(2-methoxyphenyl)-1-methylethoxy)-3-pyridinyl)-2-fluoro-5-methyl-N-(methylsulfonyl)benzamide], for which the IC50 was more than 3000 nM on human Nav 1.5 (read-out: NAV 1.5 IWQ IC50) and 92.9 nM against human Nav1.7.
Take `Cc1cc(C(=O)NS(C)(=O)=O)c(F)cc1-c1cnc(O[C@H](C)c2cc(F)c(F)cc2F)c(Cl)c1` [Example 660, 4-(5-chloro-6-((1R)-1-(2,4,5-trifluorophenyl)ethoxy)-3-pyridinyl)-2-fluoro-5-methyl-N-(methylsulfonyl)benzamide, 4-(5-chloro-6-((1S)-1-(2,4,5-trifluorophenyl)ethoxy)-3-pyridinyl)-2-fluoro-5-methyl-N-(methylsulfonyl)benzamide]: the values for the IC50 on human Nav 1.5 (read-out: NAV 1.5 IWQ IC50) and against human Nav1.7 were 6440 nM and 92.5 nM, respectively.
Taken in the same sequence, the figures for `COc1cc(C(=O)NS(C)(=O)=O)c(F)cc1-c1cnc(Oc2cc(Cl)cc(Cl)c2)c(Cl)c1` [Example 695, 4-(5-chloro-6-(3,5-dichlorophenoxy)-3-pyridinyl)-2-fluoro-5-methoxy-N-(methylsulfonyl)benzamide] were more than 3000 nM and 52.4 nM.
The matching figures for `COc1cc(C(=O)NS(C)(=O)=O)c(F)cc1-c1cnc(O[C@H]2C[C@H]3CC[C@@H]2C3)c(Cl)c1` [Example 703, 4-(6-((1R,2S,4S)-bicyclo[2.2.1]hept-2-yloxy)-5-chloro-3-pyridinyl)-2-fluoro-5-methoxy-N-(methylsulfonyl)benzamide]: more than 3000 nM and 78.2 nM.
Taken in the same sequence, the figures for `Cc1cc(C(=O)NS(C)(=O)=O)c(F)cc1-c1cnc(OCc2cccc3ncccc23)c(Cl)c1` [Example 654, 4-(5-chloro-6-(5-quinolinylmethoxy)-3-pyridinyl)-2-fluoro-5-methyl-N-(methylsulfonyl)benzamide] were more than 3000 nM and 90.4 nM.
Regarding `COc1cc(C(=O)NS(C)(=O)=O)ccc1-c1cnc(OCc2ccc(Cl)cc2)c(Cl)c1` [Example 576, 4-(5-chloro-6-((4-chlorobenzyl)oxy)-3-pyridinyl)-3-methoxy-N-(methylsulfonyl)benzamide], the results for the IC50 against human Nav 1.5 and against human Nav1.7 were more than 3000 nM and 70 nM, respectively.
In the case of `Cc1cc(C(=O)NS(C)(=O)=O)c(F)cc1-c1cnc(Oc2c(F)cc(F)cc2F)c(Cl)c1` [Example 622, 4-(5-chloro-6-(2,4,6-trifluorophenoxy)-3-pyridinyl)-2-fluoro-5-methyl-N-(methylsulfonyl)benzamide], the IC50 is more than 3000 nM at human Nav 1.5 (read-out: NAV 1.5 IWQ IC50) and 87.3 nM on human Nav1.7.
In the case of `COc1cc(C(=O)NS(C)(=O)=O)ccc1-c1cnc(Oc2cc(Cl)cc(Cl)c2)c(C)c1` [Example 841, 4-(6-(3,5-Dichlorophenoxy)-5-Methyl-3-Pyridinyl)-3-Methoxy-N-(Methylsulfonyl)Benzamide], the IC50 is more than 3000 nM at human Nav 1.5 (setting [1]) and 82.8 nM against human Nav1.7 (in-vitro Nav 1.7 PX data).
